Among the test systems are TK-10; HCC 2998; RPMI-8226; SF-268; COLO 205; MDA-MB-231; SK-OV-3; MOLT-4; OVCAR-4; Malme-3M; SK-MEL-28; SNB-75; Hs-578T; NCI-H460; HCT-116; SNB-19; UACC-62; A549; NCI/ADR-RES; A498.
Common to all, as to assay: NCI-60 cell line screen, 48 h

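Cells were grown in 96-well plates and exposed to each compound for 48 hours at five concentrations; endpoints were interpolated linearly between bracketing concentrations, or set to the highest concentration if not reached. GI50 = concentration required for 50% inhibition of growth.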 Active and inactive are the calls of the source. Cut-off read from the data, not from the text of the source: active = GI50 up to about 1.1 µM and inactive = higher.

Regarding `Nc1sc2c(c1C(=O)c1ccc(Cl)c(Cl)c1)CCCC2`, the GI50 in the test with TK-10 was 41.9 µM (inactive); in the test on HCC 2998, 17.3 µM (inactive); in the test with RPMI-8226 it was 17.8 µM (inactive); in the test with SF-268, 45.8 µM (inactive); with COLO 205 it was 32.3 µM (inactive); with MDA-MB-231, > 100 µM (inactive). Besides, the GI50 with SK-OV-3 was > 100 µM (inactive); in the test with MOLT-4, 21.7 µM (inactive); in the test with OVCAR-4 it was 28.7 µM (inactive); in the test with Malme-3M, 59.4 µM (inactive); in the test on SK-MEL-28 it was > 100 µM (inactive); with SNB-75 it was 12.1 µM (inactive). Besides, the GI50 in the test with Hs-578T was 70.8 µM (inactive); in the test on NCI-H460, 40.1 µM (inactive); with HCT-116, 40.4 µM (inactive); with SNB-19 it was 64.1 µM (inactive); in the test on UACC-62, 92 µM (inactive); with A549 it was 51.9 µM (inactive).

Turning to `CC(C)C/N=C(\N)N=C(N)N`, the GI50 in the test with TK-10, in the test with HCC 2998, with RPMI-8226, with SF-268, with COLO 205 and with MDA-MB-231 was > 100 µM (inactive) in each case. Also, the GI50 with SK-OV-3, with MOLT-4, in the test on OVCAR-4, in the test with Malme-3M, in the test on NCI/ADR-RES and with SK-MEL-28 was > 100 µM (inactive) throughout. The GI50 in the test with SNB-75, in the test on Hs-578T, with NCI-H460, in the test with HCT-116, in the test on SNB-19 and with UACC-62 was > 100 µM (inactive) in each case. Also, in the test on A549, the GI50 was > 100 µM (inactive).

As for `COc1ccc(O[C@H](CO)C[C@@H]2COC(C)(C)O2)cc1`, the GI50 in the test on A498, in the test on TK-10, in the test on HCC 2998, in the test with RPMI-8226, with SF-268 and in the test on COLO 205 was > 100 µM (inactive) in each case. Also, the GI50 in the test on MDA-MB-231, in the test on SK-OV-3, in the test with MOLT-4, in the test on OVCAR-4, with Malme-3M and in the test on NCI/ADR-RES was > 100 µM (inactive) in each case. Further, the GI50 with SK-MEL-28, in the test on SNB-75, in the test with NCI-H460, with HCT-116, in the test with SNB-19 and with UACC-62 was > 100 µM (inactive) throughout. Also, the GI50 with A549 is > 100 µM (inactive).

Consider `CC1CC(OP(=O)(OCc2ccccc2)OCc2ccccc2)[C@@H](OCc2ccccc2)C(OCc2ccccc2)C1OCc1ccccc1` (some centres undefined), for which the GI50 in the test on TK-10 was 22.2 µM (inactive); in the test with HCC 2998, > 100 µM (inactive); with RPMI-8226 it was > 100 µM (inactive); with SF-268 it was 62.7 µM (inactive); in the test on COLO 205 it was > 100 µM (inactive); in the test on MDA-MB-231 it was > 100 µM (inactive). Further, the GI50 was > 100 µM (inactive) in the test with SK-OV-3; 11.6 µM (inactive) in the test with MOLT-4; > 100 µM (inactive) in the test with OVCAR-4; 57.5 µM (inactive) in the test with Malme-3M; > 100 µM (inactive) in the test on NCI/ADR-RES; > 100 µM (inactive) with SK-MEL-28. Also, the GI50 in the test with SNB-75 is 39.5 µM (inactive); with Hs-578T, 79.8 µM (inactive); in the test with NCI-H460, 34.3 µM (inactive); in the test on HCT-116 it was 17.9 µM (inactive); in the test on SNB-19 it was 46.8 µM (inactive); with UACC-62, > 100 µM (inactive). Moreover, the GI50 in the test with A549 was 24.7 µM (inactive).

Consider `c1ccc(C[P+]2(c3ccccc3)c3ccccc3-c3ccccc32)cc1`, for which the GI50 in the test on TK-10, with HCC 2998, in the test on RPMI-8226, with SF-268, with COLO 205 and in the test with MDA-MB-231 was > 100 µM (inactive) each time. The GI50 with SK-OV-3, in the test with MOLT-4, in the test on SK-MEL-28, in the test on SNB-75, in the test on Hs-578T and in the test with HCT-116 was > 100 µM (inactive) throughout. Moreover, the GI50 in the test on SNB-19, with UACC-62 and in the test on A549 was > 100 µM (inactive) each time.

Take `CCOC(=O)Nc1cc2c(c(N)n1)N=C(c1ccc(OC)cc1)CN2`: the GI50 with A498 was 0.282 µM (active); in the test with TK-10 it was 0.361 µM (active); with HCC 2998 it was 0.000925 µM (active); in the test with RPMI-8226, < 0.01 µM (active); in the test with SF-268, 0.00119 µM (active); in the test with COLO 205 it was 0.00986 µM (active). Also, the GI50 in the test on SK-OV-3 is 0.0385 µM (active); with MOLT-4 it was < 0.0001 µM (active); in the test with OVCAR-4, 0.757 µM (active); in the test with Malme-3M, 0.0101 µM (active); with NCI/ADR-RES, 0.00126 µM (active); with SK-MEL-28, 0.0057 µM (active). Further, the GI50 in the test with SNB-75 was 0.000188 µM (active); in the test on Hs-578T it was 0.000494 µM (active); with NCI-H460 it was 0.00226 µM (active); with HCT-116, 0.000251 µM (active); in the test on SNB-19, 0.000349 µM (active); in the test with UACC-62, < 0.0001 µM (active). The GI50 in the test with A549 was 0.00258 µM (active).

`C/C=C\C(CC(=O)OC)CC(=O)N(CCC1CN(S(=O)(=O)C(F)(F)F)c2ccccc21)Cc1ccc(OC)cc1OC` (centres undefined): the GI50 in the test on A498 is > 100 µM (inactive); with TK-10, > 100 µM (inactive); in the test with HCC 2998, > 100 µM (inactive); in the test on RPMI-8226, 61.7 µM (inactive); in the test on SF-268, > 100 µM (inactive); in the test with COLO 205, > 100 µM (inactive). The GI50 was > 100 µM (inactive) in the test with MDA-MB-231; > 100 µM (inactive) in the test on SK-OV-3; > 100 µM (inactive) in the test on MOLT-4; 54.7 µM (inactive) with OVCAR-4; > 100 µM (inactive) in the test on Malme-3M; > 100 µM (inactive) in the test on NCI/ADR-RES. Besides, the GI50 is > 100 µM (inactive) with SK-MEL-28; > 100 µM (inactive) in the test with SNB-75; 73.1 µM (inactive) in the test with NCI-H460; 76.2 µM (inactive) in the test on HCT-116; > 100 µM (inactive) in the test on SNB-19; 77.4 µM (inactive) with A549.

Turning to `Cc1ccc(C(=O)Oc2ccc(/C=C3\CCC/C(=C\c4ccc(OC(=O)c5ccc(C)cc5)cc4)C3=O)cc2)cc1`, the GI50 with TK-10, in the test with HCC 2998, with RPMI-8226, with SF-268, in the test with COLO 205 and in the test with MDA-MB-231 was > 100 µM (inactive) throughout. Moreover, the GI50 was > 100 µM (inactive) in the test with MOLT-4; > 100 µM (inactive) in the test on OVCAR-4; > 100 µM (inactive) with NCI/ADR-RES; > 100 µM (inactive) with SK-MEL-28; 79.8 µM (inactive) in the test on SNB-75; > 100 µM (inactive) in the test on Hs-578T. Moreover, the GI50 with NCI-H460, in the test on HCT-116, with SNB-19, with UACC-62 and with A549 was > 100 µM (inactive) in each case.

In the case of `CCOC(=O)[C@@H]1C2C(=C[C@H]3[C@H]1C(=O)N1CCCC[C@H]31)CCCN2C(=O)OCc1ccccc1` (some centres undefined), the GI50 was 23.6 µM (inactive) in the test on A498; 75.9 µM (inactive) in the test with TK-10; 15.1 µM (inactive) with HCC 2998; 20.2 µM (inactive) in the test with RPMI-8226; 23.3 µM (inactive) in the test with SF-268; 23.9 µM (inactive) in the test on COLO 205. Besides, the GI50 is > 100 µM (inactive) in the test on MDA-MB-231; 94.8 µM (inactive) in the test with SK-OV-3; 14.3 µM (inactive) in the test with MOLT-4; 37.8 µM (inactive) with OVCAR-4; 28.5 µM (inactive) in the test with Malme-3M; 26.2 µM (inactive) in the test with NCI/ADR-RES. The GI50 is 59.7 µM (inactive) in the test with SK-MEL-28; 75.7 µM (inactive) with SNB-75; 23.8 µM (inactive) in the test with NCI-H460; 35.6 µM (inactive) in the test on HCT-116; > 100 µM (inactive) with SNB-19; 17.4 µM (inactive) in the test with UACC-62. Besides, the GI50 in the test on A549 was 36.1 µM (inactive).

Consider `Cc1[nH]c2c(c1C)S(=O)(=O)c1cc3ccccc3nc1N2`, for which the GI50 in the test on A498 is 73.8 µM (inactive); with TK-10, 37.7 µM (inactive); with HCC 2998, 65.2 µM (inactive); in the test on RPMI-8226, 14.7 µM (inactive); in the test on SF-268, 28.1 µM (inactive); in the test with COLO 205, 20 µM (inactive). In addition, the GI50 is 27.8 µM (inactive) with MDA-MB-231; 30.8 µM (inactive) with SK-OV-3; > 100 µM (inactive) with MOLT-4; 14.3 µM (inactive) with OVCAR-4; 16.6 µM (inactive) in the test with Malme-3M; 32.3 µM (inactive) in the test with NCI/ADR-RES. Further, the GI50 with SK-MEL-28 is 25.5 µM (inactive); in the test on SNB-75 it was 17.3 µM (inactive); with NCI-H460, 18.7 µM (inactive); in the test on HCT-116 it was 15.8 µM (inactive); in the test on SNB-19 it was 26.2 µM (inactive); with UACC-62, 42.7 µM (inactive). The GI50 with A549 was 36.3 µM (inactive).

Regarding `CC1=C(SCc2ccccc2)C(=O)c2ccccc2C1=O`, the GI50 was 24 µM (inactive) in the test on A498; 21 µM (inactive) with TK-10; 26.7 µM (inactive) in the test on HCC 2998; 2.42 µM (inactive) in the test with RPMI-8226; 16.7 µM (inactive) with SF-268; 19.7 µM (inactive) with COLO 205. The GI50 is 17.1 µM (inactive) in the test on MDA-MB-231; 20.2 µM (inactive) in the test on SK-OV-3; 1.68 µM (inactive) in the test with MOLT-4; 13.9 µM (inactive) with OVCAR-4; 15.5 µM (inactive) with Malme-3M; 21.7 µM (inactive) in the test with NCI/ADR-RES. Further, the GI50 in the test with SK-MEL-28 is 19.2 µM (inactive); in the test with SNB-75 it was 13.4 µM (inactive); in the test on NCI-H460, 21.8 µM (inactive); in the test with HCT-116, 4.23 µM (inactive); in the test on UACC-62 it was 15.8 µM (inactive).

(Values after ChEMBL document CHEMBL1201862, “PubChem BioAssay data set” (2004).)
